Assay results as given in patent US8318731B2, “Pyrrolopyrimidines” (Janssen Pharmaceutica NV, priority 2007, dated 2012).

Assays:
HCT-116 = assay: Cellular proliferation assay (Alamar blue), HCT-116; type: cell-based; settings: Homo sapiens; HCT-116 cells; 10% FCS; 72 h with compound; Alamar blue 4 h; read-out: pIC50 HCT-116 (converted)
How it was run: (§1)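 Read-out: resazurin-based Alamar blue fluorescence at 544/590 nm, with dye left 24 h on PC3 and A2780, 6 h on U87-MG and 4 h on HCT-116. Beforehand, cells grew 24 h compound-free, then 72 h with compound, in 10% FCS at 37° C./5% CO2. Values are expressed against untreated controls.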

H1299 = assay: Cellular proliferation assay (Alamar blue), H1299; type: cell-based; settings: 10% FCS, 72 h with compound, Alamar blue 4 h; for IC50: Homo sapiens, NCI-H1299, H1299 cells, read-out: pIC50 H1299 (converted)
How it was run: (§2)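 Viable cell number is determined by Alamar blue conversion after cells are treated with compound for 72 hours, following 24 hours of growth without compound in 10% FCS. The effect is calculated against control cells.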

U87-MG = assay: Cellular proliferation assay (Alamar blue), U87-MG; type: cell-based; settings: Homo sapiens, U-87 MG; U87-MG cells; 10% FCS; 72 h with compound; Alamar blue 6 h; read-out: pIC50 U87MG (converted)
How it was run: as §1

A2780 = assay: Cellular proliferation assay (Alamar blue), A2780; type: cell-based; settings: 10% FCS, 72 h with compound, Alamar blue 24 h; for IC50: Homo sapiens, A2780, A2780 cells, read-out: pIC50 A2780 (converted)
How it was run: as §1

PC3 = assay: Cellular proliferation assay (Alamar blue), PC3; type: cell-based; settings: 10% FCS, 72 h with compound, Alamar blue 24 h; for IC50: Homo sapiens, PC-3, PC-3 cells, read-out: pIC50 PC-3 (converted)
How it was run: as §1

MDA-MB-231 = assay: Cellular proliferation assay (Alamar blue), MDA-MB-231; type: cell-based; settings: 10% FCS, 72 h with compound, Alamar blue 24 h; for IC50: Homo sapiens, MDA-MB-231, MDA-MB-231 cells, read-out: pIC50 MDA/MB231 (converted)
How it was run: as §2

PLK4 (h) = biological target: T1, PLK4 (h) (Homo sapiens, UniProt O00444); assay: PLK-4 human kinase scintillation proximity assay (SPA); type: biochemical; settings: 1 μM ATP, 60 minutes at r.t., read-out: PLK4 pIC50 (converted)
T1 sequence (O00444 1-970): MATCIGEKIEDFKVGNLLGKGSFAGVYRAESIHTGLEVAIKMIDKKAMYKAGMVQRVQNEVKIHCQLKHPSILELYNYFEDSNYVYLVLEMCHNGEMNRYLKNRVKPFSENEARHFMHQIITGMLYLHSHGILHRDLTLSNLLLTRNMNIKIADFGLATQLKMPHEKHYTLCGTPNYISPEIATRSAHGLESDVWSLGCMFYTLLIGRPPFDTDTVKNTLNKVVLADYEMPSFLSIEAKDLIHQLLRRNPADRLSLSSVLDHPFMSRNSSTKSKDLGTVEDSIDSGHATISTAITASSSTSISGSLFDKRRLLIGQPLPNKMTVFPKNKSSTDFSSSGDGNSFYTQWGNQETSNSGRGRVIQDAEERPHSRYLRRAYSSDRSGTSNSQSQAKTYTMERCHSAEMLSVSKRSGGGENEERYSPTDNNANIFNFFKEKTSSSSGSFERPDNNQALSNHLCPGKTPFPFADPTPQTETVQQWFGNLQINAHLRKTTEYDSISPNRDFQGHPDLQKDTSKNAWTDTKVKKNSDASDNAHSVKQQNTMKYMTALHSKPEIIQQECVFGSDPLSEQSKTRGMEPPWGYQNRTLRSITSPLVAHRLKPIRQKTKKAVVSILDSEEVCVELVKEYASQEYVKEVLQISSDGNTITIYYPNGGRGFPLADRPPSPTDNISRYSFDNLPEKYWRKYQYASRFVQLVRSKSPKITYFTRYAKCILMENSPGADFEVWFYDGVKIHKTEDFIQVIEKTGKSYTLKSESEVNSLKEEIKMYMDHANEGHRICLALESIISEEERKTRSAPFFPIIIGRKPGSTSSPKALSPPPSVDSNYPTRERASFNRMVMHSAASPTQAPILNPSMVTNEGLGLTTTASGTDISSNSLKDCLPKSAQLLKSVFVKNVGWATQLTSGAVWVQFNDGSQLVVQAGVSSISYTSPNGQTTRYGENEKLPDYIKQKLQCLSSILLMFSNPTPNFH
How it was run: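 Scintillation proximity read-out: EDTA-stopped reactions were captured on streptavidin SPA beads after PLK4 (19 μg/ml) had phosphorylated 10 μM biotin-peptide for 60 min at room temperature, using 1 μM ATP spiked with 2 nM 33P-ATP in pH 8.0 HEPES buffer.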

SMILES	IC50 (HCT-116)	IC50 (H1299)	IC50 (U87-MG)	IC50 (A2780)	IC50 (PC3)	IC50 (MDA-MB-231)	melting point	IC50 (PLK4 (h))	pIC50 H1299 (H1299; H1299 cells)	pIC50 A2780 (A2780; A2780 cells)	pIC50 PC-3 (PC3; PC-3 cells)	pIC50 MDA/MB231 (MDA-MB-231; MDA-MB-231 cells)
CN1CCCN(C)C(=O)COc2cc(ccc2OCCNc2nccs2)Nc2ncnc3[nH]cc(c23)C1 [Compound 156]	0.631 µM	2 µM	1.26 µM	0.501 µM	3.16 µM	3.16 µM	238.4 °C	–	–	–	–	–
CN1CCCN(C)C(=O)COc2cc(ccc2OC2CCOCC2)Nc2ncnc3[nH]cc(c23)C1 [Compound 74]	–	–	–	–	–	–	270.9 °C	0.2 µM	–	–	–	–
COCCOc1c(OC)cc2cc1OCC(=O)N(C)CCCN(C)Cc1c[nH]c3ncnc(c13)N2 [Compound 161]	–	–	–	–	–	–	201.4 °C	–	–	–	–	–
CN1CCCN(C)C(=O)COc2cc(ccc2OCCN(C)c2nccs2)Nc2ncnc3[nH]cc(c23)C1 [Compound 157]	0.501 µM	1.26 µM	1 µM	0.501 µM	3.16 µM	3.16 µM	232.2 °C	–	6.00	6.4	5.6	5.6
COc1ccc(OCCOc2ccc3cc2OCC(=O)N(C)CCCN(C)Cc2c[nH]c4ncnc(c24)N3)cc1 [Compound 155]	0.0631 µM	0.126 µM	0.251 µM	0.0316 µM	2.51 µM	2.51 µM	250.4 °C	–	–	–	–	–
CN1CCCN(C)C(=O)COc2cc(ccc2OCC2CCN(Cc3ccccc3)CC2)Nc2ncnc3[nH]cc(c23)C1 [Compound 149]	0.398 µM	≥ 10 µM	0.501 µM	0.316 µM	1 µM	1 µM	241 °C	–	–	–	–	–
CN1CCCN(C)C(=O)COc2cc(ccc2OCCSc2ccc(Cl)cc2)Nc2ncnc3[nH]cc(c23)C1 [Compound 150]	0.0631 µM	≥ 10 µM	–	0.0631 µM	5.01 µM	2.51 µM	252.6 °C	–	–	–	–	–
CN1CCCN(C)C(=O)COc2cc(cc(C(F)(F)F)c2)Nc2ncnc3[nH]cc(c23)C1 [Compound 54]	> 10 µM	> 10 µM	> 10 µM	> 10 µM	> 10 µM	> 10 µM	–	0.251 µM	–	–	–	–
COc1ccc2cc1OCCCCC(=O)N(C)CCCN(C)Cc1c[nH]c3ncnc(c13)N2 [Compound 16]	> 10 µM	> 10 µM	> 10 µM	> 10 µM	> 10 µM	> 10 µM	–	0.126 µM	–	–	–	–
CN1CCN(C)C(=O)COc2cc(ccc2Cl)Nc2ncnc3[nH]cc(c23)C1 [Compound 98]	5.01 µM	> 10 µM	6.31 µM	> 10 µM	> 10 µM	> 10 µM	–	0.1 µM	–	–	–	–
COc1ccc2cc1CN1CCCC(C1)C(=O)N(C)CCCc1c[nH]c3ncnc(c13)N2 (stereo not shown) [Compound 35]	> 10 µM	> 10 µM	> 10 µM	> 10 µM	> 10 µM	> 10 µM	–	> 10 µM	–	–	–	–
COc1ccc2cc1CN(C(C)C)CC(=O)N(C)CCCc1c[nH]c3ncnc(c13)N2 [Compound 37]	> 10 µM	> 10 µM	> 10 µM	> 10 µM	> 10 µM	> 10 µM	–	> 10 µM	–	–	–	–
